Data on eleven compounds can be found in patent publication US11986471B2, “Compounds and methods of use” (Tango Therapeutics, Inc., priority 2018, dated 2024).

pIC50: −log10 of the molar value.

The subject of one experiment is HAP1 MTAP-intact. The experiment can be described thus: SDMA in-cell western assay, HAP1 MTAP-intact cell line. The format is cell-based. Particulars: Homo sapiens. In short, it runs like this: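 Using an MTAP-isogenic HAP1 cell pair, inhibition of SDMA formation is read by in-cell western and expressed as IC50. MTAP-selectivity is assigned where the ratio between lines reaches 3 fold or greater.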

In experiment [1] the target is T1, PRMT5 (Homo sapiens, UniProt O14744).
T1 construct: purchased Viva (custom protein)
The experiment in a line: PRMT5 IC50 assay in the presence of MTA as cofactor. It is filed as biochemical. The conditions noted are these: for pIC50: PRMT5, MTA as cofactor; for SAM/MTA Ratio: ratio between the Ki in the presence of SAM and the Ki in the presence of MTA. In short, it runs like this:
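Three cofactor conditions tested for PRMT5 inhibition: none, MTA and SAM, each giving an IC50. For conversion to Ki, the MTA-condition IC50 is divided by 13.5 and the SAM-condition IC50 by 1.5, and the two Ki values are expressed as a SAM/MTA ratio.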

Experiment [2] deals with T1, PRMT5. The experiment in a line: PRMT5 IC50 assay in the presence of SAM as cofactor. The format is biochemical. In short, it runs like this:
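For the SAM-containing format, dividing IC50 by 1.5 yields Ki; for the MTA-containing format the divisor is 13.5. A third format without cofactor gives IC50 alone.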

The target in experiment [3] is T1, PRMT5. The experiment can be described thus: PRMT5 IC50 assay with no cofactor. The format is biochemical. In short, it runs like this:
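Potency against PRMT5 is compared across cofactor states, where IC50 equals Ki×1.5 with SAM present and Ki×13.5 with MTA present.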

Another experiment relates to HAP1 MTAP-deleted. The experiment can be described thus: SDMA in-cell western assay, HAP1 MTAP-deleted cell line. It is filed as cell-based. The conditions noted are these: for pIC50: Homo sapiens, HAP1 MTAP-deleted cell line; for MTAP Intact/Deleted Ratio: IC50 ratio HAP1 MTAP-intact / HAP1 MTAP-deleted. In short, it runs like this: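 In-cell western for SDMA marks; MTAP-deleted (null) HAP1 background; values given as IC50.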

T1 sequence (O14744 whole entry): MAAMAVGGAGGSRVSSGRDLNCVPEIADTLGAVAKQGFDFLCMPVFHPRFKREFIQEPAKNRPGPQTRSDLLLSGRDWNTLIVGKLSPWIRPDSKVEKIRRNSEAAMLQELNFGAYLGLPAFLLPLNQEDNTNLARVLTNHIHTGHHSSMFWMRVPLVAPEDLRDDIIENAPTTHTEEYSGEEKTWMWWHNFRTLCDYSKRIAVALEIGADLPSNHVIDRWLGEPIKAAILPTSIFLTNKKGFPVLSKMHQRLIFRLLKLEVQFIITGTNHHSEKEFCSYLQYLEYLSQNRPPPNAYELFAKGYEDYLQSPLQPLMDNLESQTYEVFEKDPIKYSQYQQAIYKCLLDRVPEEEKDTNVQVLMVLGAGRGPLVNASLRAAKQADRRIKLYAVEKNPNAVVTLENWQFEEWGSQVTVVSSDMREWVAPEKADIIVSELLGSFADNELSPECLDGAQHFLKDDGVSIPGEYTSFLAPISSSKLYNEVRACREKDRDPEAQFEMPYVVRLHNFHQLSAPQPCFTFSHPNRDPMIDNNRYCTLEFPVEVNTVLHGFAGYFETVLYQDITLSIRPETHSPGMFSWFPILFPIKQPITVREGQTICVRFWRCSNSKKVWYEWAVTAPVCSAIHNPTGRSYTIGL
T1 sequence (Q9BQA1 whole entry partner): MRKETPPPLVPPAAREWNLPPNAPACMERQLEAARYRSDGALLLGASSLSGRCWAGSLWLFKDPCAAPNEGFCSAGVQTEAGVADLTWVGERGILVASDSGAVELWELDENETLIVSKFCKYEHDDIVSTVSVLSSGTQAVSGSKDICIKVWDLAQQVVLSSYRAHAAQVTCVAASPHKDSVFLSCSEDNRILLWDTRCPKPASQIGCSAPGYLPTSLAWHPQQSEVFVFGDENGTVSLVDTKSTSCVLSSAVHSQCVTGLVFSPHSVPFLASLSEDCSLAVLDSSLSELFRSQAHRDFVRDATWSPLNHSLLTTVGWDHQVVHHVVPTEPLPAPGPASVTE

For the compound `CC(=O)N1CCC(Nc2cc(C(=O)NC[C@H](O)CN3CCc4cc(OCc5ocnc5C)ccc4C3)cc(N3CCN(C)CC3)n2)CC1` [Compound 584, 2-[(1-acetylpiperidin-4-yl)amino]-N-[(2S)-2-hydroxy-3-{6-[(4-methyl-1,3-oxazol-5-yl)methoxy]-1,2,3,4-tetrahydroisoquinolin-2-yl}propyl]-6-(4-methylpiperazin-1-yl)pyridine-4-carboxamide], the pIC50 with HAP1 MTAP-intact was at most 5.00; at PRMT5 [1], 6.30 to 7.30; on PRMT5 [2], 6.30 to 7.30; against PRMT5 [3], 6.30 to 7.30; in the experiment on HAP1 MTAP-deleted it was 5.00 to 6.00. The “SAM/MTA Ratio” value at PRMT5 [1] is “A (a Ki ratio greater than or equal to 10 fold between the Ki in the presence of SAM and the Ki in the presence of MTA)”. The “MTAP Intact/Deleted Ratio” value in the experiment with HAP1 MTAP-deleted is “B* (an IC50 ratio greater than or equal to 3 fold but lower than 10 fold between the IC50 in the HAP1 MTAP-intact cell line and the HAP1 MTAP-deleted cell line)”.

With `Cc1c(OCc2cnco2)ccc2c1CCN(C[C@@H](O)CNC(=O)c1ccnc(NC3CN(C(=O)C4CCC4)C3)c1)C2` [Compound 586, (S)-2-((1-(cyclobutanecarbonyl)azetidin-3-yl)amino)-N-(2-hydroxy-3-(5-methyl-6-(oxazol-5-ylmethoxy)-3N-dihydroisoquinolin-2(1H)-yl)propyl)isonicotinamide], the pIC50 with HAP1 MTAP-intact was at most 5.00; on PRMT5 [1], 6.30 to 7.30; on PRMT5 [2], 6.30 to 7.30; on PRMT5 [3] it was 5.30 to 6.30; with HAP1 MTAP-deleted, 5.00 to 6.00. In addition, the “SAM/MTA Ratio” value at PRMT5 [1] was “A (a Ki ratio greater than or equal to 10 fold between the Ki in the presence of SAM and the Ki in the presence of MTA)”. Moreover, the “MTAP Intact/Deleted Ratio” value in the experiment with HAP1 MTAP-deleted is “B* (an IC50 ratio greater than or equal to 3 fold but lower than 10 fold between the IC50 in the HAP1 MTAP-intact cell line and the HAP1 MTAP-deleted cell line)”.

Regarding `CC(=O)N1CCC(Nc2cc(C(=O)NC[C@H](O)CN3CCc4cc(OCc5ocnc5C)ccc4C3)cc(N3CCCCC3)n2)CC1` [Compound 587, 2-[(1-acetylpiperidin-4-yl)amino]-N-[(2S)-2-hydroxy-3-{6-[(4-methyl-1,3-oxazol-5-yl)methoxy]-1,2,3,4-tetrahydroisoquinolin-2-yl}propyl]-6-(piperidin-1-yl)pyridine-4-carboxamide], the pIC50 was 5.00 to 6.00 in the experiment on HAP1 MTAP-intact; 6.30 to 7.30 on PRMT5 [1]; 6.30 to 7.30 at PRMT5 [2]; 5.30 to 6.30 at PRMT5 [3]; over 6.00 in the experiment on HAP1 MTAP-deleted. Also, on PRMT5 [1], the “SAM/MTA Ratio” value is “A (a Ki ratio greater than or equal to 10 fold between the Ki in the presence of SAM and the Ki in the presence of MTA)”. Besides, in the experiment with HAP1 MTAP-deleted, the “MTAP Intact/Deleted Ratio” value is “A* (an IC50 ratio greater than or equal to 10 fold between the IC50 in the HAP1 MTAP-intact cell line and the HAP1 MTAP-deleted cell line)”.

`Cc1c(OCc2cnco2)ccc2c1CCN(C[C@@H](O)CNC(=O)c1ccnc(NC3CN(C(=O)C4CC4)C3)c1)C2` [Compound 588, (S)-2-((1-(cyclopropanecarbonyl)azetidin-3-yl)amino)-N-(2-hydroxy-3-(5-methyl-6-(oxazol-5-ylmethoxy)-3,4-dihydroisoquinolin-2(1H)-yl)propyl)isonicotinamide]: the pIC50 in the experiment on HAP1 MTAP-intact is at most 5.00; at PRMT5 [1], 6.30 to 7.30; at PRMT5 [2], 6.30 to 7.30; at PRMT5 [3] it was 5.30 to 6.30; with HAP1 MTAP-deleted, 5.00 to 6.00. For the same compound, the “SAM/MTA Ratio” value on PRMT5 [1] is “A (a Ki ratio greater than or equal to 10 fold between the Ki in the presence of SAM and the Ki in the presence of MTA)”. In addition, in the experiment on HAP1 MTAP-deleted, the “MTAP Intact/Deleted Ratio” value is “C* (an IC50 ratio of less than 3 fold between the IC50 in the HAP1 MTAP-intact cell line and the HAP1 MTAP-deleted cell line)”.

Consider `Cc1c(OCc2cnco2)ccc2c1CCN(C[C@@H](O)CNC(=O)c1cc(N[C@H]3CC[C@H](C(=O)N4CCCCC4)CC3)ncn1)C2` [Compound 589, N-[(2S)-2-hydroxy-3-{5-methyl-6-[(1,3-oxazol-5-yl)methoxy]-1,2,3,4-tetrahydroisoquinolin-2-yl}propyl]-6-{((1r,4r)-4-(piperidine-1-carbonyl)cyclohexyl]amino}pyrimidine-4-carboxamide], for which the pIC50 with HAP1 MTAP-intact is at most 5.00; on PRMT5 [1] it was 6.30 to 7.30; on PRMT5 [2], 6.30 to 7.30; against PRMT5 [3], 5.30 to 6.30; in the experiment with HAP1 MTAP-deleted it was over 6.00. The “SAM/MTA Ratio” value at PRMT5 [1] is “A (a Ki ratio greater than or equal to 10 fold between the Ki in the presence of SAM and the Ki in the presence of MTA)”. Besides, the “MTAP Intact/Deleted Ratio” value in the experiment with HAP1 MTAP-deleted was “A* (an IC50 ratio greater than or equal to 10 fold between the IC50 in the HAP1 MTAP-intact cell line and the HAP1 MTAP-deleted cell line)”.

With `CC(=O)N1CCC(Nc2cc(C(=O)NC[C@H](O)CN3CCc4c(ccc(OCc5ocnc5C)c4C)C3)cc(N3CCN(C(C)=O)CC3)n2)CC1` [Compound 590, 2-(4-acetylpiperazin-1-yl)-6-[(1-acetylpiperidin-4-yl)amino]-N-[(2S)-2-hydroxy-3-{5-methyl-6-[(4-methyl-1,3-oxazol-5-yl)methoxy]-1,2,3,4-tetrahydroisoquinolin-2-yl}propyl]pyridine-4-carboxamide], the pIC50 in the experiment on HAP1 MTAP-intact was at most 5.00; on PRMT5 [1], 6.30 to 7.30; at PRMT5 [2], 6.30 to 7.30; on PRMT5 [3], 5.30 to 6.30; in the experiment with HAP1 MTAP-deleted, 5.00 to 6.00. The “SAM/MTA Ratio” value on PRMT5 [1] was “A (a Ki ratio greater than or equal to 10 fold between the Ki in the presence of SAM and the Ki in the presence of MTA)”. Besides, the “MTAP Intact/Deleted Ratio” value with HAP1 MTAP-deleted is “C* (an IC50 ratio of less than 3 fold between the IC50 in the HAP1 MTAP-intact cell line and the HAP1 MTAP-deleted cell line)”.

For the compound `COCCN(C)c1cc(C(=O)NC[C@H](O)CN2CCc3c(ccc(OCc4ocnc4C)c3C)C2)cc(NC2CCN(C(C)=O)CC2)n1` [Compound 592], the negative logarithm of the IC50 (pIC50) in the experiment on HAP1 MTAP-intact was at most 5.00; on PRMT5 [1] it was 6.30 to 7.30; at PRMT5 [2], 6.30 to 7.30; on PRMT5 [3], 5.30 to 6.30; with HAP1 MTAP-deleted, over 6.00. Further, the “SAM/MTA Ratio” value at PRMT5 [1] was “A (a Ki ratio greater than or equal to 10 fold between the Ki in the presence of SAM and the Ki in the presence of MTA)”. For the same compound, the “MTAP Intact/Deleted Ratio” value with HAP1 MTAP-deleted was “A* (an IC50 ratio greater than or equal to 10 fold between the IC50 in the HAP1 MTAP-intact cell line and the HAP1 MTAP-deleted cell line)”.

For the compound `CC(=O)N1CCC(Nc2cc(C(=O)NC[C@H](O)CN3CCc4c(ccc(OCc5ocnc5C)c4C)C3)cc(N3CCN(C)CC3)n2)CC1` [Compound 593], the pIC50 in the experiment on HAP1 MTAP-intact was at most 5.00; at PRMT5 [1], 6.30 to 7.30; on PRMT5 [2], 6.30 to 7.30; against PRMT5 [3], 5.30 to 6.30; in the experiment on HAP1 MTAP-deleted, 5.00 to 6.00. Also, the “SAM/MTA Ratio” value at PRMT5 [1] was “A (a Ki ratio greater than or equal to 10 fold between the Ki in the presence of SAM and the Ki in the presence of MTA)”. Moreover, in the experiment with HAP1 MTAP-deleted, the “MTAP Intact/Deleted Ratio” value is “B* (an IC50 ratio greater than or equal to 3 fold but lower than 10 fold between the IC50 in the HAP1 MTAP-intact cell line and the HAP1 MTAP-deleted cell line)”.

For `CC(=O)N1CCC(Nc2cc(C(=O)NC[C@H](O)CN3CCc4cc(OCc5ocnc5C)ccc4C3)cc(N3CCN(C(C)=O)CC3)n2)CC1` [Compound 594, 2-(4-acetylpiperazin-1-yl)-6-[(1-acetylpiperidin-4-yl)amino]-N-[(2S)-2-hydroxy-3-{6-[(4-methyl-1,3-oxazol-5-yl)methoxy]-1,2,3,4-tetrahydroisoquinolin-2-yl}propyl]pyridine-4-carboxamide], the pIC50 is at most 5.00 in the experiment with HAP1 MTAP-intact; 6.30 to 7.30 on PRMT5 [1]; 6.30 to 7.30 on PRMT5 [2]; 5.30 to 6.30 against PRMT5 [3]; 5.00 to 6.00 in the experiment with HAP1 MTAP-deleted. At PRMT5 [1], the “SAM/MTA Ratio” value was “A (a Ki ratio greater than or equal to 10 fold between the Ki in the presence of SAM and the Ki in the presence of MTA)”. Moreover, the “MTAP Intact/Deleted Ratio” value with HAP1 MTAP-deleted was “C* (an IC50 ratio of less than 3 fold between the IC50 in the HAP1 MTAP-intact cell line and the HAP1 MTAP-deleted cell line)”.

Take `CC(=O)N1CCC(Nc2cc(C(=O)NC[C@H](O)CN3CCc4c(ccc(OCc5ocnc5C)c4C)C3)cc(N3CCCCC3)n2)CC1` [Compound 595]: the pIC50 was 5.00 to 6.00 with HAP1 MTAP-intact; over 7.30 at PRMT5 [1]; 6.30 to 7.30 at PRMT5 [2]; 5.30 to 6.30 against PRMT5 [3]; over 6.00 in the experiment with HAP1 MTAP-deleted. Moreover, the “SAM/MTA Ratio” value on PRMT5 [1] is “A (a Ki ratio greater than or equal to 10 fold between the Ki in the presence of SAM and the Ki in the presence of MTA)”. Further, in the experiment on HAP1 MTAP-deleted, the “MTAP Intact/Deleted Ratio” value was “A* (an IC50 ratio greater than or equal to 10 fold between the IC50 in the HAP1 MTAP-intact cell line and the HAP1 MTAP-deleted cell line)”.

For `COc1cnc(NC2CCN(C(C)=O)CC2)cc1C(=O)NC[C@H](O)CN1CCc2cc(OCc3ocnc3C)ccc2C1` [Compound 597, (S)-2-((1-acetylpiperidin-4-yl)amino)-N-(2-hydroxy-3-(6-((4-methyloxazol-5-yl)methoxy)-3,4-dihydroisoquinolin-2(1H)-yl)propyl)-5-methoxyisonicotinamide], the pIC50 is 5.00 to 6.00 in the experiment with HAP1 MTAP-intact; over 7.30 at PRMT5 [1]; 6.30 to 7.30 on PRMT5 [2]; 6.30 to 7.30 at PRMT5 [3]; over 6.00 in the experiment on HAP1 MTAP-deleted. For the same compound, the “SAM/MTA Ratio” value at PRMT5 [1] is “A (a Ki ratio greater than or equal to 10 fold between the Ki in the presence of SAM and the Ki in the presence of MTA)”. In addition, the “MTAP Intact/Deleted Ratio” value in the experiment with HAP1 MTAP-deleted is “B* (an IC50 ratio greater than or equal to 3 fold but lower than 10 fold between the IC50 in the HAP1 MTAP-intact cell line and the HAP1 MTAP-deleted cell line)”.
